Test results as given in patent US10167284B2, “Spirocyclic compounds as agonists of the muscarinic M1 receptor and/or M4 receptor” (HEPTARES THERAPEUTICS LIMITED, priority 2015, dated 2019).

Molecular target: human muscarinic M3 receptor (Homo sapiens, UniProt P20309)
Test: Alphascreen Surefire phospho-ERK1/2 functional assay, M3
Conditions: not given

human muscarinic M3 receptor, sequence (P20309 whole entry): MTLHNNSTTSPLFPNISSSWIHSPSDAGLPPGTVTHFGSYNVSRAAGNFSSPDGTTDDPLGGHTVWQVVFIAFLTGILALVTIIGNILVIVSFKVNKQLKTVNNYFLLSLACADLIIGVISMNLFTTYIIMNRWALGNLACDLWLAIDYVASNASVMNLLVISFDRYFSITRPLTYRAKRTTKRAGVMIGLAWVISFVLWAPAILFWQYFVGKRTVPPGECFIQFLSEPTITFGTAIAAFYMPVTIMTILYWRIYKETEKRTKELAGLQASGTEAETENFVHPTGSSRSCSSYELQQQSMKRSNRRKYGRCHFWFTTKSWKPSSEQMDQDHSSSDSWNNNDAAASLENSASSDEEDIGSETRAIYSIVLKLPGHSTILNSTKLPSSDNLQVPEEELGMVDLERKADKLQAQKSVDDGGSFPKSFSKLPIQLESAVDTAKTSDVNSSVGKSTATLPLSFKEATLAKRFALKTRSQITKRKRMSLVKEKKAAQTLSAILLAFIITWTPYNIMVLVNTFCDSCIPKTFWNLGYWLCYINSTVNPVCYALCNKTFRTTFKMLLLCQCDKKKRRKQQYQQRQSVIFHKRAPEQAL

SMILES	EC50 [nM]
CCOC(=O)N1CCC2(CC(N3CCC4(CC3)OC(=O)N(CC3CC3)C4(C)C)C2)C1 (single isomer, unassigned) [4-39 Isomer 2]	> 20000
CCOC(=O)N1CCC2(CC(N3CCC4(CC3)CC(=O)N(CC)N4CC)C2)C1 (single isomer, unassigned) [6-8 Isomer 2]	> 20000
CCOC(=O)N1CCC2(CC(N3CCC4(CC3)OC(=O)N(OC)C4CC)C2)C1 (mixture of isomers) [4-48 mixture of diastereomers]	> 20000
CCOC(=O)N1CCC2(CC(N3CCC4(CC3)CC(=O)NC4CC)C2)C1 (single isomer, unassigned) [3-5 Isomer 2]	> 20000
CCOC(=O)N1CCC2(CC(N3CCC4(CC3)OC(=O)NC43CCCC3)C2)C1 (single isomer, unassigned) [4-31 Isomer 2]	> 20000
CCOC(=O)N1CCC2(CC(N3CCC4(CC3)OC(=O)N(CCF)C4(C)C)C2)C1 (single isomer, unassigned) [4-40 Isomer 2]	> 20000
CCOC(=O)N1CCC2(CC(N3CCC4(CC3)OC(=O)N(CC(C)C)C4CC)C2)C1 (single isomer, unassigned) [4-24 Isomer 2 (racemic)]	> 20000

Same assay, conditions: CHO, read-out: M3 % Emax cf. ACh, CHO cells stably expressing human M3; Emax relative to ACh

SMILES	Emax [%]
CCOC(=O)N1CCC2(CC(N3CCC4(CC3)OC(=O)N(CC3CC3)C4(C)C)C2)C1 (single isomer, unassigned) [4-39 Isomer 2]	8
CCOC(=O)N1CCC2(CC(N3CCC4(CC3)CC(=O)N(CC)N4CC)C2)C1 (single isomer, unassigned) [6-8 Isomer 2]	100
CCOC(=O)N1CCC2(CC(N3CCC4(CC3)OC(=O)N(OC)C4CC)C2)C1 (mixture of isomers) [4-48 mixture of diastereomers]	11
CCOC(=O)N1CCC2(CC(N3CCC4(CC3)CC(=O)NC4CC)C2)C1 (single isomer, unassigned) [3-5 Isomer 2]	10
CCOC(=O)N1CCC2(CC(N3CCC4(CC3)OC(=O)NC43CCCC3)C2)C1 (single isomer, unassigned) [4-31 Isomer 2]	4
CCOC(=O)N1CCC2(CC(N3CCC4(CC3)OC(=O)N(CCF)C4(C)C)C2)C1 (single isomer, unassigned) [4-40 Isomer 2]	6
CCOC(=O)N1CCC2(CC(N3CCC4(CC3)OC(=O)N(CC(C)C)C4CC)C2)C1 (single isomer, unassigned) [4-24 Isomer 2 (racemic)]	2

Molecular target: T1, human muscarinic M1 receptor (Homo sapiens, UniProt P11229)
T1 construct: expressed in transfected cells
T1 sequence (P11229 1-460): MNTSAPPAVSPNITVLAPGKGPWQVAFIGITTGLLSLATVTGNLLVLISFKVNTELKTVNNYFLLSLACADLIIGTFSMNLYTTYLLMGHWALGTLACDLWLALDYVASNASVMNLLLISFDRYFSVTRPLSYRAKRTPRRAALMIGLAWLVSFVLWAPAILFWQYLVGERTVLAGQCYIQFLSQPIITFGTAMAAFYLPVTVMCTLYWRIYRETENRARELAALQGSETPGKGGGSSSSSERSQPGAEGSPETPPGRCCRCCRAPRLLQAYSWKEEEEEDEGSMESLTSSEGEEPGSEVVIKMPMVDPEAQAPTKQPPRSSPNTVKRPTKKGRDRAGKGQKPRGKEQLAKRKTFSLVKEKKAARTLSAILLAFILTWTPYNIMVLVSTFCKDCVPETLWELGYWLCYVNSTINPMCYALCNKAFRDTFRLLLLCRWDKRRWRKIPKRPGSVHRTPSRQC
Test: Alphascreen Surefire phospho-ERK1/2 functional assay, M1
Format: cell-based
Conditions: CHO cells stably expressing human M1; phospho-ERK1/2; read-out: pEC50 M1 (converted)

SMILES	EC50 [nM]
CCOC(=O)N1CCC2(CC(N3CCC4(CC3)OC(=O)N(CC3CC3)C4(C)C)C2)C1 (single isomer, unassigned) [4-39 Isomer 2]	794
CCOC(=O)N1CCC2(CC(N3CCC4(CC3)CC(=O)N(CC)N4CC)C2)C1 (single isomer, unassigned) [6-8 Isomer 2]	3160
CCOC(=O)N1CCC2(CC(N3CCC4(CC3)OC(=O)N(OC)C4CC)C2)C1 (mixture of isomers) [4-48 mixture of diastereomers]	501
CCOC(=O)N1CCC2(CC(N3CCC4(CC3)CC(=O)NC4CC)C2)C1 (single isomer, unassigned) [3-5 Isomer 2]	25.1
CCOC(=O)N1CCC2(CC(N3CCC4(CC3)OC(=O)NC43CCCC3)C2)C1 (single isomer, unassigned) [4-31 Isomer 2]	794
CCOC(=O)N1CCC2(CC(N3CCC4(CC3)OC(=O)N(CCF)C4(C)C)C2)C1 (single isomer, unassigned) [4-40 Isomer 2]	7940
CCOC(=O)N1CCC2(CC(N3CCC4(CC3)OC(=O)N(CC(C)C)C4CC)C2)C1 (single isomer, unassigned) [4-24 Isomer 2 (racemic)]	501

Same assay, conditions: CHO, read-out: M1 % Emax cf. ACh, CHO cells stably expressing human M1; Emax relative to ACh

SMILES	Emax [%]
CCOC(=O)N1CCC2(CC(N3CCC4(CC3)OC(=O)N(CC3CC3)C4(C)C)C2)C1 (single isomer, unassigned) [4-39 Isomer 2]	56
CCOC(=O)N1CCC2(CC(N3CCC4(CC3)CC(=O)N(CC)N4CC)C2)C1 (single isomer, unassigned) [6-8 Isomer 2]	55
CCOC(=O)N1CCC2(CC(N3CCC4(CC3)OC(=O)N(OC)C4CC)C2)C1 (mixture of isomers) [4-48 mixture of diastereomers]	56
CCOC(=O)N1CCC2(CC(N3CCC4(CC3)CC(=O)NC4CC)C2)C1 (single isomer, unassigned) [3-5 Isomer 2]	96
CCOC(=O)N1CCC2(CC(N3CCC4(CC3)OC(=O)NC43CCCC3)C2)C1 (single isomer, unassigned) [4-31 Isomer 2]	66
CCOC(=O)N1CCC2(CC(N3CCC4(CC3)OC(=O)N(CCF)C4(C)C)C2)C1 (single isomer, unassigned) [4-40 Isomer 2]	37
CCOC(=O)N1CCC2(CC(N3CCC4(CC3)OC(=O)N(CC(C)C)C4CC)C2)C1 (single isomer, unassigned) [4-24 Isomer 2 (racemic)]	84

Molecular target: T2, human muscarinic M4 receptor (Homo sapiens, UniProt P08173)
T2 construct: expressed in transfected cells
T2 sequence (P08173 1-479): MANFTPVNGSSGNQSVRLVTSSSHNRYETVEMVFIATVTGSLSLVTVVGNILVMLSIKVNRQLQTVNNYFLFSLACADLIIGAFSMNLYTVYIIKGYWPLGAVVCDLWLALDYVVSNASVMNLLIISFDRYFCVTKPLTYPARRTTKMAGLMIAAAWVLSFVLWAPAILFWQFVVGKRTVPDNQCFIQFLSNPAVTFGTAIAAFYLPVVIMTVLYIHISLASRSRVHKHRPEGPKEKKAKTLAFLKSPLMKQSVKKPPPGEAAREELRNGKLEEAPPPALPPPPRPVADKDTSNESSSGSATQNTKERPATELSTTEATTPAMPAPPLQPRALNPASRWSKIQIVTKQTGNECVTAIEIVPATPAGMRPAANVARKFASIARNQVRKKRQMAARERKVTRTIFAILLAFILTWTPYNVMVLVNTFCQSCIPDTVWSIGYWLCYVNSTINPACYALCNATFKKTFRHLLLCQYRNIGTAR
Test: Alphascreen Surefire phospho-ERK1/2 functional assay, M4
Format: cell-based
Conditions: CHO cells stably expressing human M4; phospho-ERK1/2; read-out: pEC50 M4 (converted)
Experimental: CHO cells stably expressing the human muscarinic M1, M2, M3 or M4 receptor were plated (25K/well) onto 96-well tissue culture plates in MEM-alpha+10% dialysed FBS. Once adhered, cells were serum-starved overnight. Agonist stimulation was performed by the addition of 5 μL agonist to the cells for 5 min (37° C.). Media was removed and 50 μL of lysis buffer added. After 15 min, a 4 μL sample was transferred to 384-well plate and 7 μL of detection mixture added. Plates were incubated for 2 h with gentle agitation in the dark and then read on a PHERAstar plate reader.
pEC50 and Emax figures were calculated from the resulting data for each receptor subtype.

SMILES	EC50 [nM]
CCOC(=O)N1CCC2(CC(N3CCC4(CC3)OC(=O)N(CC3CC3)C4(C)C)C2)C1 (single isomer, unassigned) [4-39 Isomer 2]	63.1
CCOC(=O)N1CCC2(CC(N3CCC4(CC3)CC(=O)N(CC)N4CC)C2)C1 (single isomer, unassigned) [6-8 Isomer 2]	63.1
CCOC(=O)N1CCC2(CC(N3CCC4(CC3)OC(=O)N(OC)C4CC)C2)C1 (mixture of isomers) [4-48 mixture of diastereomers]	100
CCOC(=O)N1CCC2(CC(N3CCC4(CC3)CC(=O)NC4CC)C2)C1 (single isomer, unassigned) [3-5 Isomer 2]	3.16
CCOC(=O)N1CCC2(CC(N3CCC4(CC3)OC(=O)NC43CCCC3)C2)C1 (single isomer, unassigned) [4-31 Isomer 2]	31.6
CCOC(=O)N1CCC2(CC(N3CCC4(CC3)OC(=O)N(CCF)C4(C)C)C2)C1 (single isomer, unassigned) [4-40 Isomer 2]	39.8
CCOC(=O)N1CCC2(CC(N3CCC4(CC3)OC(=O)N(CC(C)C)C4CC)C2)C1 (single isomer, unassigned) [4-24 Isomer 2 (racemic)]	10

Same assay, conditions: CHO, read-out: M4 % Emax cf. ACh, CHO cells stably expressing human M4; Emax relative to ACh

SMILES	Emax [%]
CCOC(=O)N1CCC2(CC(N3CCC4(CC3)OC(=O)N(CC3CC3)C4(C)C)C2)C1 (single isomer, unassigned) [4-39 Isomer 2]	88
CCOC(=O)N1CCC2(CC(N3CCC4(CC3)CC(=O)N(CC)N4CC)C2)C1 (single isomer, unassigned) [6-8 Isomer 2]	103
CCOC(=O)N1CCC2(CC(N3CCC4(CC3)OC(=O)N(OC)C4CC)C2)C1 (mixture of isomers) [4-48 mixture of diastereomers]	77
CCOC(=O)N1CCC2(CC(N3CCC4(CC3)CC(=O)NC4CC)C2)C1 (single isomer, unassigned) [3-5 Isomer 2]	108
CCOC(=O)N1CCC2(CC(N3CCC4(CC3)OC(=O)NC43CCCC3)C2)C1 (single isomer, unassigned) [4-31 Isomer 2]	88
CCOC(=O)N1CCC2(CC(N3CCC4(CC3)OC(=O)N(CCF)C4(C)C)C2)C1 (single isomer, unassigned) [4-40 Isomer 2]	109
CCOC(=O)N1CCC2(CC(N3CCC4(CC3)OC(=O)N(CC(C)C)C4CC)C2)C1 (single isomer, unassigned) [4-24 Isomer 2 (racemic)]	84

Molecular target: T3, human muscarinic M2 receptor (Homo sapiens, UniProt P08172)
T3 sequence (P08172 1-466): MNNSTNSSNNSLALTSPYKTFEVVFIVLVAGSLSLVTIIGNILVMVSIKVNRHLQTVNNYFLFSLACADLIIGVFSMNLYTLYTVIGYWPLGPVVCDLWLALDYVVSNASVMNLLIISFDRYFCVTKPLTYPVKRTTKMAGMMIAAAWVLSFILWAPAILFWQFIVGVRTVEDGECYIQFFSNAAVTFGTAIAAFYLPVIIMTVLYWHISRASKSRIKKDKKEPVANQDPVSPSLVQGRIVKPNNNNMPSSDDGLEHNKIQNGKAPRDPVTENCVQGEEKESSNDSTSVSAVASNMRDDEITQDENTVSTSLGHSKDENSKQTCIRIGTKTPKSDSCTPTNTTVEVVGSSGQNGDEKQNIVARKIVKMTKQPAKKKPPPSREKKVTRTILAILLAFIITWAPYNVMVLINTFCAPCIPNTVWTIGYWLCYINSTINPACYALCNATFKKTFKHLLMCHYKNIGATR
Test: Alphascreen Surefire phospho-ERK1/2 functional assay, M2
Conditions: CHO, read-out: M2 % Emax cf. ACh, CHO cells stably expressing human M2; Emax relative to ACh

SMILES	Emax [%]
CCOC(=O)N1CCC2(CC(N3CCC4(CC3)OC(=O)N(CC3CC3)C4(C)C)C2)C1 (single isomer, unassigned) [4-39 Isomer 2]	87
CCOC(=O)N1CCC2(CC(N3CCC4(CC3)CC(=O)N(CC)N4CC)C2)C1 (single isomer, unassigned) [6-8 Isomer 2]	10
CCOC(=O)N1CCC2(CC(N3CCC4(CC3)OC(=O)N(OC)C4CC)C2)C1 (mixture of isomers) [4-48 mixture of diastereomers]	3
CCOC(=O)N1CCC2(CC(N3CCC4(CC3)CC(=O)NC4CC)C2)C1 (single isomer, unassigned) [3-5 Isomer 2]	16
CCOC(=O)N1CCC2(CC(N3CCC4(CC3)OC(=O)NC43CCCC3)C2)C1 (single isomer, unassigned) [4-31 Isomer 2]	4
CCOC(=O)N1CCC2(CC(N3CCC4(CC3)OC(=O)N(CCF)C4(C)C)C2)C1 (single isomer, unassigned) [4-40 Isomer 2]	4
CCOC(=O)N1CCC2(CC(N3CCC4(CC3)OC(=O)N(CC(C)C)C4CC)C2)C1 (single isomer, unassigned) [4-24 Isomer 2 (racemic)]	53

Same assay, conditions: pEC50 M2, CHO cells stably expressing human M2; phospho-ERK1/2

SMILES	EC50 [nM]
CCOC(=O)N1CCC2(CC(N3CCC4(CC3)OC(=O)N(CC3CC3)C4(C)C)C2)C1 (single isomer, unassigned) [4-39 Isomer 2]	> 20000
CCOC(=O)N1CCC2(CC(N3CCC4(CC3)CC(=O)N(CC)N4CC)C2)C1 (single isomer, unassigned) [6-8 Isomer 2]	> 20000
CCOC(=O)N1CCC2(CC(N3CCC4(CC3)OC(=O)N(OC)C4CC)C2)C1 (mixture of isomers) [4-48 mixture of diastereomers]	> 20000
CCOC(=O)N1CCC2(CC(N3CCC4(CC3)CC(=O)NC4CC)C2)C1 (single isomer, unassigned) [3-5 Isomer 2]	> 20000
CCOC(=O)N1CCC2(CC(N3CCC4(CC3)OC(=O)NC43CCCC3)C2)C1 (single isomer, unassigned) [4-31 Isomer 2]	> 20000
CCOC(=O)N1CCC2(CC(N3CCC4(CC3)OC(=O)N(CCF)C4(C)C)C2)C1 (single isomer, unassigned) [4-40 Isomer 2]	> 20000
CCOC(=O)N1CCC2(CC(N3CCC4(CC3)OC(=O)N(CC(C)C)C4CC)C2)C1 (single isomer, unassigned) [4-24 Isomer 2 (racemic)]	> 20000
